Results from patent EP1893207B1, “USE OF SUBSTITUTED PIPERAZINE DERIVATIVES AND MORPHOLINE DERIVATIVES” (Merck Patent GmbH, priority 2005, dated 2006).
pIC50: −log10 of the molar value.

Tests used:
Pilz-tyrosinase = test: Tyrosinase assay (inhibition of the enzyme tyrosinase, L-DOPA substrate, optical density at 450 nm); type: biochemical; settings: Tyrosinase 10 U, L-DOPA 4 mM, 1 h 37°C
Procedure: Die Wirkung der Verbindungen nach Formeln Ia bis IIp als Hautaufheller wird geprüft durch ihre Fähigkeit das Enzym Tyrosinase zu hemmen und damit die Melanin-Synthese zu unterbinden. Um die hemmende Wirkung der Verbindungen der Formeln Ia bis IIp gegenüber Tyrosinase zu zeigen wurden als Substrate Pilz-tyrosinase und L-Tyrosin oder L-DOPA verwendet und mit der Referenz-Verbindung verglichen.
Die Verbindungen Ia bis IIp und Tyrosinase (10 U) werden 10 Min. in Eis vorgekühlt und L-DOPA (4 mM) zugefügt und für 1 h auf 37°C gehalten. Es wird die optische Dichte jedes experimentell ermittelten Punktes bei 450 nm gegenüber der entsprechenden Referenz ohne Enzym gemessen. Kojicsäure wird als Tyrosinase-Referenz-Inhibitor benutzt. Die Versuchsergebnisse sind in der folgenden Tabelle 1 dargestellt, ausgedrückt durch den IC 50-Wert (d.h. die Konzentration der jeweiligen Versuchssubstanz bei der die Tyrosinase-Aktivität um 50% blockiert ist). Tab. 1 Tyrosinase-Versuchsergebnisse

[1] = system: normale menschliche Melanocyten; test: Melanin assay (melanin content of human melanocyte cultures, optical density at 405 nm); type: cell-based; settings: 240 h incubation; for % Kontrolle normiert*: melanin content normalised; for % Kontrolle: melanin content
Source text: Das Potential der Verbindungen nach Formeln Ia bis IIp als Hautaufheller-Wirkstoff wurde außerdem durch den Melanin-Versuch verifiziert. Der Effekt in Bezug auf den Melanin-Gehalt von menschlichen epidermalen Melanocyten-Kulturen dieser Verbindungen wurde ermittelt und mit der Referenzverbindung (Kojicsäure) verglichen.
Eine vorausgehende Cytotoxizitäts-Studie der Verbindungen nach Formeln Ia bis IIp wurde durchgeführt um drei nicht-cytotoxische Konzentrationen für den Melanin-Versuch zu ermitteln.
Melanin-Versuch: normale menschliche Melanocyten wurden in 24 Lochplatten (110.000 Zellen/Loch) kultiviert. Bei 50 % Zusammenfluss wurde das Kulturmedium mit oder ohne (Kontrollverbindung) Verbindungen der Formeln Ia bis IIp durch frisches Kulturmedium in drei verschiedenen Konzentrationen ersetzt.
Nach der Inkubation (240 Stunden) wurden die Monolayers gewaschen, die Zellen lysiert und das Melanin extrahiert. Es wurde die optische Dichte jedes experimentellen Punktes bei 405 nm gegen den Melanin-Standard gemessen. Tabelle 2 zeigt die Ergebnisse zwei ausgewählter Verbindungen im Vergleich zur Kojicsäure und der Kontrollverbindung (mit 100% Melaningehalt), wobei der ermittelte Melaningehalt (in %) bei jeweils drei verschiedenen Konzentrationen angegeben ist. Tab. 2 Melanin-Versuchsergebnisse

With c1ccc(CN2CCN(Cc3ccccn3)CC2)cc1 [IIk, 1-Benzyl-4-pyridin-2-ylmethyl-piperazin] the pIC50 (Pilz-tyrosinase) was under 3.00.
c1cc(CN2CCNCC2)ccn1 [IIn, 1-Pydridin-4-ylmethyl-piperazin] was tested, and the pIC50 (Pilz-tyrosinase) was 3.55.
In the case of c1cncc(CN2CCNCC2)c1 [IIo, 1-Pyridin-3-ylmethyl-piperazin], the pIC50 (Pilz-tyrosinase) was 3.44.
c1ccc(CN2CCNCC2)nc1 [IIp, 1-Pyridin-2-ylmethyl-piperazin] showed a pIC50 (Pilz-tyrosinase) of 3.26.
For Oc1cccc(CN2CCN(Cc3ccccc3)CC2)c1O [Ia, 3-(4-Benzyl-piperazin-1-ylmethyl)-benzen-1,2-diol], the Melanin ([1]; Konzent. 0.8 µg/mL) was 38.6 µg/mL, the “Melanin normiert*” value ([1]; Konzent. 0.8 µg/mL) was 36.4 µglmL and the “% Kontrolle normiert*” value ([1]; Konzent. 0.8 µg/mL) was 98%. For the same compound, the “% Kontrolle” value ([1]; Konzent. 0.8 µg/mL) was 104% and the pIC50 (Pilz-tyrosinase) was 3.87.
In the case of Oc1ccc(CN2CCN(Cc3ccccc3)CC2)c(O)c1 [Ib, 4-(4-Benzyl-piperazin-1-ylmethyl)-benzen-1,3-diol], the Melanin ([1]; Konzent. 0.8 µg/mL) was 37.8 µg/mL, the “Melanin normiert*” value ([1]; Konzent. 0.8 µg/mL) was 37.1 µglmL and the Melanin ([1]; Konzent. 4 µg/mL) was 37.1 µg/mL. For the same compound, the “Melanin normiert*” value ([1]; Konzent. 4 µg/mL) was 34.8 µglmL, the “% Kontrolle normiert*” value ([1]; Konzent. 0.8 µg/mL) was 100% and the “% Kontrolle normiert*” value ([1]; Konzent. 4 µg/mL) was 94%. The “% Kontrolle” value ([1]; Konzent. 0.8 µg/mL) was 102%, the “% Kontrolle” value ([1]; Konzent. 4 µg/mL) was 100% and the pIC50 (Pilz-tyrosinase) was 3.81.
For Oc1cc(O)cc(CN2CCN(Cc3ccccc3)CC2)c1 [Id, 5-(4-Benzyl-piperazin-1-ylmethyl)-benzen-1,3-diol], the pIC50 (Pilz-tyrosinase) was under 3.00.
For CCN1CCN(Cc2ccc(O)cc2O)CC1 [Ie, 4-(4-Ethyl-piperazin-1-ylmethyl)-benzen-1,3-diol], the Melanin ([1]; Konzent. 0.8 µg/mL) was 37.3 µg/mL, the “Melanin normiert*” value ([1]; Konzent. 0.8 µg/mL) was 36.5 µglmL and the Melanin ([1]; Konzent. 4 µg/mL) was 37.5 µg/mL. For the same compound, the “Melanin normiert*” value ([1]; Konzent. 4 µg/mL) was 36.0 µglmL, the Melanin ([1]; Konzent. 20 µg/mL) was 33.8 µg/mL and the “Melanin normiert*” value ([1]; Konzent. 20 µg/mL) was 32.9 µglmL. The “% Kontrolle normiert*” value ([1]; Konzent. 0.8 µg/mL) was 98%, the “% Kontrolle normiert*” value ([1]; Konzent. 4 µg/mL) was 97% and the “% Kontrolle normiert*” value ([1]; Konzent. 20 µg/mL) was 88%. The “% Kontrolle” value ([1]; Konzent. 0.8 µg/mL) was 100%, the “% Kontrolle” value ([1]; Konzent. 4 µg/mL) was 101% and the “% Kontrolle” value ([1]; Konzent. 20 µg/mL) was 91%. For the same compound, the pIC50 (Pilz-tyrosinase) was 3.58.
CC(C)(C)OC(=O)N1CCN(Cc2ccc(O)cc2O)CC1 [If, 4-(4-tert-Butoxycarbinyl-piperazin-1-ylmethyl)-benzen-1,3-diol] was tested, and the pIC50 (Pilz-tyrosinase) was 3.85.
With Oc1ccc(CN2CCOCC2)c(O)c1 [Ih, 4-Morpholin-1-ylmethyl-benzen-1,3-diol] the Melanin ([1]; Konzent. 1.6 µg/mL) was 37.2 µg/mL, the “Melanin normiert*” value ([1]; Konzent. 1.6 µg/mL) was 37.0 µglmL and the Melanin ([1]; Konzent. 8 µg/mL) was 35.3 µg/mL. For the same compound, the “Melanin normiert*” value ([1]; Konzent. 8 µg/mL) was 32.1 µglmL, the Melanin ([1]; Konzent. 40 µg/mL) was 30.6 µg/mL and the “Melanin normiert*” value ([1]; Konzent. 40 µg/mL) was 30.4 µglmL. For the same compound, the “% Kontrolle normiert*” value ([1]; Konzent. 1.6 µg/mL) was 99%, the “% Kontrolle normiert*” value ([1]; Konzent. 8 µg/mL) was 86% and the “% Kontrolle normiert*” value ([1]; Konzent. 40 µg/mL) was 82%. For the same compound, the “% Kontrolle” value ([1]; Konzent. 1.6 µg/mL) was 100%, the “% Kontrolle” value ([1]; Konzent. 8 µg/mL) was 95% and the “% Kontrolle” value ([1]; Konzent. 40 µg/mL) was 82%. It also gave a pIC50 (Pilz-tyrosinase) of 4.11.
In the case of COc1ccc(CN2CCN(Cc3ccccc3)CC2)c(OC)c1 [Ii, 1-Benzyl-4-(2,4-dimethoxy-benzyl)-piperazin], the pIC50 (Pilz-tyrosinase) was under 3.00.
c1ccc(CN2CCN(Cc3ccc4c(c3)OCO4)CC2)cc1 [Ij, 1-Benzo[1,3]dioxol-5-ylmethyl-4-benzyl-piperazin] showed a pIC50 (Pilz-tyrosinase) of 3.82.
For O=c1cc(CO)occ1O [Kojicsäure, reference compound], the Melanin ([1]; Konzent. 6.8 µg/mL) was 34.4 µg/mL, the “Melanin normiert*” value ([1]; Konzent. 6.8 µg/mL) was 38.0 µglmL and the Melanin ([1]; Konzent. 15.6 µg/mL) was 30 µg/mL. For the same compound, the “Melanin normiert*” value ([1]; Konzent. 15.6 µg/mL) was 34.6 µglmL, the Melanin ([1]; Konzent. 36 µg/mL) was 23.8 µg/mL and the “Melanin normiert*” value ([1]; Konzent. 36 µg/mL) was 31.7 µglmL. For the same compound, the “% Kontrolle normiert*” value ([1]; Konzent. 6.8 µg/mL) was 101%, the “% Kontrolle normiert*” value ([1]; Konzent. 15.6 µg/mL) was 92% and the “% Kontrolle normiert*” value ([1]; Konzent. 36 µg/mL) was 85%. For the same compound, the “% Kontrolle” value ([1]; Konzent. 6.8 µg/mL) was 92%, the “% Kontrolle” value ([1]; Konzent. 15.6 µg/mL) was 80% and the “% Kontrolle” value ([1]; Konzent. 36 µg/mL) was 64%. For the same compound, the pIC50 (Pilz-tyrosinase) was 4.92.
